Data on three molecules can be found in patent US20030152910A1, “Method for identification and quantification of kinase inhibitors” (priority 1999, published 2003).

A word on the IC50: it is the midpoint of a concentration-inhibition curve.

Series [1] has as its target T1, human cytomegalovirus UL97 protein kinase (Human cytomegalovirus, UniProt P16788).
T1 construct: expressed in transfected cells
The series can be described thus: UL97 in-cell-activity assay (transfected 293 cells + GCV; colour conversion / LDH read-out). In kind it is cell-based. On the procedure: Human embryonic kidney cells 293 (ATCC CRL-1573), as cultivated with DMEM medium containing 5% fetal calf serum (FCS), were harvested by trypsinization, rinsed with PBS and seeded in 96-well plates at a cell number of 20,000 per well.
Transfection (Lipofectamin Plus reagents, GibcoBRL) was performed at a cell layer confluency of 50-75%. For this, identical transfection conditions were chosen for 24 wells of the 96-well plate to obtain determinations over a 8-well line in triplicate. One transfection set-up for 24 wells was composed as follows:
Meanwhile, culture media of the 96-well plates were removed by the use of a multichannel pipette and a 50-μl volume of fresh DMEM-0% FCS was given in each well. Then, 25 μl of each transfection set-up was added per well. Plates were incubated for 5 h at 37° C. in a 5% CO2 atmosphere. Subsequent to this incubation, a 125-μl volume of DMEM-10% FCS was added per well and incubated over night at 37° C. in a 5% CO2 atmosphere.
Transfection media were removed from the cells by the use of a multichannel pipette. […]
Visual and photometric determinations of the colour conversion of the phenol red-supplemented culture medium was performed by the use of a computer scanner and an ELISA reader (OD 560 nm).
Measurement of the lactate dehydrogenase (LDH) acitivity in the residual cell layer was performed with the CytoTox 96 Non-Radioactive Cytotoxicity (Promega). […] Thereafter, 50 μl of stop buffer was added and the colour reaction was quantitated by the use of an ELISA reader (OD 490 nm). […]
Five days after addition of the substances, the read-out of signals was performed by the photometric quantification of the colour conversion of the culture medium and, for comparison, by the measurement of LDH activity in the residual cell layers. Qualitative/semi-quantitative illustrations are given by computer scanning figures in (a) for colour conversion, and in (b) for LDH activity. Quantitative values are presented as the results of photometric determinations in (c) for colour conversion, and in (d) for LDH activity. […]

Series [2] concerns 293 cells transfected with wild-type or mutant pUL97 (K355M catalytically inactive). In kind it is cell-based, human. Conditions: 5 nM to 500 nM inhibitor, GCV 5-40 μM, wild-type and mutant pUL97, LDH 5 d posttransfection. An excerpt:
If a test compound is capable of inhibiting the kinase, but additionally has a cytotoxic activity, no rescue from cell death would be observed. Thus, the method of the invention preferably comprises the additional step (e) distinguishing between (i) noncytotoxic test compounds having kinase inhibiting properties and (ii) test compounds having kinase inhibiting properties but additional cytotoxic side effects. Furthermore, the effect of a given test compound may be determined at several different concentrations of the test compound in order to obtain a more accurate information of the kinase inhibiting properties and possible unwanted cytotoxic side effects. […] In this manner, the concentration dependency and the target specificity of the inhibitory effect of the test compound and the concentration dependency of a possible cytotoxic effect may be determined together.
Substrate (e.g. ganciclovir) is then added in an appropriate concentration to transfected cells (as indicated in the diagram). […] As a measurement for cell death, either the colour conversion of the medium (containing phenol red as a pH indicator) can the quantified photometrically, or the LDH activity within the residual cell layer can be determined (resulting in low activities when extensive cell death has occurred). Other methods of quantification are also possible (e.g. measurement of cell proliferation). […]

Series [3] deals with Non-transfected 293 cells devoid of UL97 kinase activity. In words: Growth inhibition of non-transfected 293 cells by GCV (FIG. 11B). Format: cell-based, human.
In series [4] the test system is UL97-transfected 293 cells (293UL). In words: Growth inhibition of 293UL cells by GCV (FIG. 11A). Format: cell-based, human. Conditions: for IC50: grown 90 h in presence of GCV. On the procedure: 293 cells transfected with pUL97 expression construct (pcDNA3-UL97; see above under 2.1.) were grown for 14 d in presence of geneticin (750 μg/ml). Individual clones were isolated (minimal dilution), re-tested for geneticin resistance and for sensitivity to 100 μM GCV. Clones identified as geneticin resistant and GCV-sensitive were expanded and stored frozen in aliquots for further experiments, after having verified by Western blot their capacity to express UL97 protein.
293UL cells were routinely grown in DMEM supplemented with 10% FCS, glutamine (1%), pyruvate (1%), geneticin (final 0.5 mg G418/ml culture), and penicillin/streptomycin (1%). Medium was changed every 3-4 d, and cells were subcultured before reaching confluency by trypsin/EDTA treatment (exposure of adherent cells to 5 mg/ml trypsin and 2 mg/ml EDTA, dissolved in sterile 0.85% NaCl) and re-seeding in at least 5-fold dilution. Cells were maximally 10 times subcultured before a new frozen batch was used.
For routine antiproliferative assays, 293 UL cells were suspended at 13.8×10^3 cells/ml in complete medium, and 145 μl/well (2000 cells) of this suspension were seeded in 96-well flat-bottom plates (Nunclon #167008). After attachment of the cells for 24 h, drugs were added: All wells received 5 μl GCV (4 mM in complete medium, final concentration 100 μM), and each 3 wells received 50 μl compound (40 μM in complete medium+0.4% DMSO). A control series received 50 μl 40 μM compound only in the absence of GCV. Another control plate, which had received cells or medium only, was glutaraldehyde-fixed or frozen (see below) at the time of drug addition and stained for quantitation of cell density.
Cells were further incubated for 72 h and then analyzed for proliferation (staining with methylene blue or fluorescent dyes, see section 2.4).
A) UL97-transfected 293 cells 1,2,3,4: individual IC50 profiles (averages of triplicates); cells grown for 90 h in presence of GCV.

“And” between values parts separate entries of the source, which are not always exact repeats. Equal entries are not always repeated. Where two headings read alike, the source gives them in different places.

As for `Cn1c2ccccc2c2c3c(c4c5ccccc5n(CCC#N)c4c21)CNC3=O` [GÖ6976], in series [1] (5 nM and 50 nM inhibitor, GCV 2.5 and 5 μM, pl18neo-UL97, LDH activity after 5 days), the “specific inhibition of UL97 activity” value is on record as “stronger at the 50-nM than at the 5-nM concentration”. Moreover, in series [1] (50 nM inhibitor, GCV 1.25-160 μM, 5 days, colour conversion and LDH activity), the “identification as UL97-specific inhibitor” value was “identified as UL97-specific inhibitors”. Moreover, the “inhibition of UL97 activity at the highest concentration (decrease in LDH activity indicates cytotoxicity)” value in series [1] (500 nM inhibitor, GCV 2.5 and 5 μM, LDH activity after 5 days) is “markedly decreased”.
For `CN[C@@H]1C[C@H]2O[C@@](C)([C@@H]1OC)n1c3ccccc3c3c4c(c5c6ccccc6n2c5c31)C(=O)NC4` [STP, staurosporine], the “inherent (nonspecific) cytotoxicity versus specific pUL97 inhibition” value in series [2] was “nonspecific cytotoxicity”.
Take `Nc1nc(O)c2ncn(COC(CO)CO)c2n1` [GCV, ganciclovir]: the IC50 is 3700 µM in series [3] (Homo sapiens, HEK293, non-transfected 293 cells); 26 ± 11 µM in series [4] (Homo sapiens, HEK293, 90 h, average ± s.d. of 4 profiles, read-out: IC50 growth inhibition, average); 41 µM and 19 µM and 17 µM in series [4] (read-out: individual IC50 profiles (averages of triplicates)). Also, in series [3] (up to 100 μM GCV), the “effect on proliferation of wild-type 293 cells” value is “not affected”. For the same molecule, the “reduction of cell growth” value in series [4] (100 μM GCV, 3 d, methylene blue) turned out to be 50%.
